Measurements as given in the NIST ThermoML archive (doi:10.1016/j.jct.2010.08.010).
Numbers after ± are expanded uncertainties.

Conditions: Liquid, Buoyancy - hydrostatic balance with magnetic suspension - one sinker

## CCO [ethanol]
353.15 K, 5946.1 kPa
  mass density: 742.072 ± 0.17 kg/m3
353.15 K, 8005.6 kPa
  mass density: 744.473 ± 0.17 kg/m3
353.15 K, 10092 kPa
  mass density: 746.834 ± 0.17 kg/m3
353.15 K, 12108 kPa
  mass density: 749.042 ± 0.17 kg/m3
353.15 K, 14010 kPa
  mass density: 751.074 ± 0.17 kg/m3
353.15 K, 16061 kPa
  mass density: 753.214 ± 0.18 kg/m3
353.15 K, 18136 kPa
  mass density: 755.321 ± 0.18 kg/m3
353.15 K, 20137 kPa
  mass density: 757.302 ± 0.18 kg/m3
353.15 K, 22100 kPa
  mass density: 759.195 ± 0.18 kg/m3
353.15 K, 24062 kPa
  mass density: 761.047 ± 0.18 kg/m3
353.15 K, 26069 kPa
  mass density: 762.906 ± 0.18 kg/m3
353.15 K, 28075 kPa
  mass density: 764.73 ± 0.18 kg/m3
353.15 K, 30016 kPa
  mass density: 766.442 ± 0.18 kg/m3
373.15 K, 1102.9 kPa
  mass density: 715.263 ± 0.17 kg/m3
373.15 K, 2003.4 kPa
  mass density: 716.613 ± 0.17 kg/m3
373.15 K, 4088.3 kPa
  mass density: 719.636 ± 0.17 kg/m3
373.15 K, 6108.7 kPa
  mass density: 722.45 ± 0.17 kg/m3
373.15 K, 8076 kPa
  mass density: 725.091 ± 0.17 kg/m3
373.15 K, 10096 kPa
  mass density: 727.71 ± 0.17 kg/m3
373.15 K, 12124 kPa
  mass density: 730.256 ± 0.17 kg/m3
373.15 K, 14044 kPa
  mass density: 732.583 ± 0.17 kg/m3
373.15 K, 16078 kPa
  mass density: 734.983 ± 0.17 kg/m3
373.15 K, 18122 kPa
  mass density: 737.319 ± 0.17 kg/m3
373.15 K, 20098 kPa
  mass density: 739.516 ± 0.17 kg/m3
373.15 K, 22116 kPa
  mass density: 741.702 ± 0.17 kg/m3
373.15 K, 24049 kPa
  mass density: 743.742 ± 0.17 kg/m3
373.15 K, 26068 kPa
  mass density: 745.822 ± 0.17 kg/m3
373.15 K, 28108 kPa
  mass density: 747.871 ± 0.17 kg/m3
373.15 K, 29942 kPa
  mass density: 749.678 ± 0.17 kg/m3
393.15 K, 1102.9 kPa
  mass density: 691.923 ± 0.16 kg/m3
393.15 K, 2003.6 kPa
  mass density: 693.559 ± 0.16 kg/m3
393.15 K, 3981 kPa
  mass density: 697.012 ± 0.16 kg/m3
393.15 K, 6085.6 kPa
  mass density: 700.514 ± 0.16 kg/m3
393.15 K, 8006.1 kPa
  mass density: 703.56 ± 0.17 kg/m3
393.15 K, 10040 kPa
  mass density: 706.659 ± 0.17 kg/m3
393.15 K, 12072 kPa
  mass density: 709.623 ± 0.17 kg/m3
393.15 K, 14119 kPa
  mass density: 712.504 ± 0.17 kg/m3
393.15 K, 16086 kPa
  mass density: 715.168 ± 0.17 kg/m3
393.15 K, 18081 kPa
  mass density: 717.782 ± 0.17 kg/m3
393.15 K, 19900 kPa
  mass density: 720.097 ± 0.17 kg/m3
393.15 K, 22039 kPa
  mass density: 722.726 ± 0.17 kg/m3
393.15 K, 24041 kPa
  mass density: 725.121 ± 0.17 kg/m3
393.15 K, 26092 kPa
  mass density: 727.505 ± 0.17 kg/m3
393.15 K, 28070 kPa
  mass density: 729.738 ± 0.17 kg/m3
393.15 K, 29851 kPa
  mass density: 731.71 ± 0.17 kg/m3
413.15 K, 1102.6 kPa
  mass density: 665.097 ± 0.16 kg/m3
413.15 K, 2002.8 kPa
  mass density: 667.194 ± 0.16 kg/m3
413.15 K, 4113.3 kPa
  mass density: 671.781 ± 0.16 kg/m3
413.15 K, 6094.1 kPa
  mass density: 675.838 ± 0.16 kg/m3
413.15 K, 8091.5 kPa
  mass density: 679.694 ± 0.16 kg/m3
413.15 K, 10044 kPa
  mass density: 683.283 ± 0.16 kg/m3
413.15 K, 11973 kPa
  mass density: 686.66 ± 0.16 kg/m3
413.15 K, 14085 kPa
  mass density: 690.174 ± 0.16 kg/m3
413.15 K, 16053 kPa
  mass density: 693.316 ± 0.16 kg/m3
413.15 K, 18080 kPa
  mass density: 696.427 ± 0.16 kg/m3
413.15 K, 20003 kPa
  mass density: 699.262 ± 0.16 kg/m3
413.15 K, 22069 kPa
  mass density: 702.204 ± 0.16 kg/m3
413.15 K, 24049 kPa
  mass density: 704.916 ± 0.17 kg/m3
413.15 K, 26035 kPa
  mass density: 707.559 ± 0.17 kg/m3
413.15 K, 27916 kPa
  mass density: 709.988 ± 0.17 kg/m3
413.15 K, 30021 kPa
  mass density: 712.618 ± 0.17 kg/m3
433.15 K, 2003.3 kPa
  mass density: 636.052 ± 0.15 kg/m3
433.15 K, 4004.9 kPa
  mass density: 641.895 ± 0.15 kg/m3
433.15 K, 6117.7 kPa
  mass density: 647.513 ± 0.15 kg/m3
433.15 K, 7970.2 kPa
  mass density: 652.088 ± 0.15 kg/m3
433.15 K, 10076 kPa
  mass density: 656.927 ± 0.16 kg/m3
433.15 K, 12092 kPa
  mass density: 661.27 ± 0.16 kg/m3
433.15 K, 14024 kPa
  mass density: 665.195 ± 0.16 kg/m3
433.15 K, 16095 kPa
  mass density: 669.184 ± 0.16 kg/m3
433.15 K, 17956 kPa
  mass density: 672.597 ± 0.16 kg/m3
433.15 K, 20025 kPa
  mass density: 676.22 ± 0.16 kg/m3
433.15 K, 22076 kPa
  mass density: 679.658 ± 0.16 kg/m3
433.15 K, 23970 kPa
  mass density: 682.703 ± 0.16 kg/m3
433.15 K, 26097 kPa
  mass density: 685.993 ± 0.16 kg/m3
433.15 K, 27971 kPa
  mass density: 688.786 ± 0.16 kg/m3
433.15 K, 29931 kPa
  mass density: 691.61 ± 0.16 kg/m3
453.15 K, 2000.7 kPa
  mass density: 597.505 ± 0.14 kg/m3
453.15 K, 4003.1 kPa
  mass density: 606.126 ± 0.15 kg/m3
453.15 K, 5998.3 kPa
  mass density: 613.615 ± 0.15 kg/m3
453.15 K, 7995.3 kPa
  mass density: 620.308 ± 0.15 kg/m3
453.15 K, 10007 kPa
  mass density: 626.429 ± 0.15 kg/m3
453.15 K, 12086 kPa
  mass density: 632.177 ± 0.15 kg/m3
453.15 K, 14048 kPa
  mass density: 637.222 ± 0.15 kg/m3
453.15 K, 15954 kPa
  mass density: 641.798 ± 0.15 kg/m3
453.15 K, 17939 kPa
  mass density: 646.288 ± 0.15 kg/m3
453.15 K, 20012 kPa
  mass density: 650.704 ± 0.15 kg/m3
453.15 K, 22018 kPa
  mass density: 654.751 ± 0.15 kg/m3
453.15 K, 24140 kPa
  mass density: 658.813 ± 0.16 kg/m3
453.15 K, 25982 kPa
  mass density: 662.178 ± 0.16 kg/m3
453.15 K, 28127 kPa
  mass density: 665.939 ± 0.16 kg/m3
453.15 K, 30017 kPa
  mass density: 669.115 ± 0.16 kg/m3
473.15 K, 4002.6 kPa
  mass density: 562.328 ± 0.14 kg/m3
473.15 K, 6007.1 kPa
  mass density: 573.872 ± 0.14 kg/m3
473.15 K, 8001.4 kPa
  mass density: 583.438 ± 0.14 kg/m3
473.15 K, 10006 kPa
  mass density: 591.752 ± 0.14 kg/m3
473.15 K, 12009 kPa
  mass density: 599.085 ± 0.14 kg/m3
473.15 K, 14093 kPa
  mass density: 605.96 ± 0.14 kg/m3
473.15 K, 15977 kPa
  mass density: 611.66 ± 0.14 kg/m3
473.15 K, 18013 kPa
  mass density: 617.325 ± 0.15 kg/m3
473.15 K, 20010 kPa
  mass density: 622.485 ± 0.15 kg/m3
473.15 K, 21973 kPa
  mass density: 627.259 ± 0.15 kg/m3
473.15 K, 24020 kPa
  mass density: 631.94 ± 0.15 kg/m3
473.15 K, 25868 kPa
  mass density: 635.925 ± 0.15 kg/m3
473.15 K, 28002 kPa
  mass density: 640.289 ± 0.15 kg/m3
473.15 K, 30014 kPa
  mass density: 644.229 ± 0.15 kg/m3
